# Entries after “also recorded” stand apart in the source; their conditions may differ.
# How the values were obtained:
# Format in all cases: in vivo, rat
# [1] = system: Lewis rats; test: IPGTT of analogs HG-1 to HG-11, compounds given orally (FIG. 15); conditions: 2 mg/kg orally; for hypoglycemic activity in IPGTT compared with TBZ / HG-3: FIG. 15
# Protocol: FIG. 15 is a bar graph showing the results of testing various analogs HG-1 to HG-11 in IPGTT glucose tolerance tests in rats. Results for TBZ, emetine, and olanzapine are also shown. Lewis rats fasted for 6 hours were administered the compounds orally (30 min, 2 mg/kg) followed by intraperitoneal glucose injection (0 min, […]), and plasma glucose levels were monitored for 120 mins. Results are presented as AUC percentage of the vehicle. Error bars indicate SEM (n=5).
# Racemic HG-2 and its diastereoisomer HG-1 were evaluated for their ability to improve glucose tolerance by performing intraperitoneal glucose tolerance tests (IPGTT) in rats. IPGTT testing is described above. See also Murthy, R., et al., Eur. J. Nucl. Med. Mol. Imaging, 2008, 35(4), 790-797.
# [2] = system: Lewis rats; test: Intraperitoneal glucose tolerance test (IPGTT), compounds given i.v.; conditions: for area under the curve from glucose tolerance tests: each series a separate experiment; for AUC Blood Glucose IPGTT: 2 mg/kg (2.0 μg/gbw) i.v.; for blood glucose levels around sixty minutes following glucose challenge: i.v. injection at 2 mg/kg body weight
# Protocol: (§1) All animal studies were reviewed and approved by the Institutional Animal Care and Use Committee (IACUC) at Columbia University's Medical School. All experiments were performed in accordance with the IACUC approved procedures. Normal male Lewis rats (100-400 grams) were obtained from Taconic (Taconic Inc., Germantown, N.Y.) and were housed under conditions of controlled humidity (55±5%), temperature (23±1° C.), and lighting (light on: 06.00-18.00 hours) with free access to standard laboratory rat chow and water. Rats were handled daily to minimize nonspecific stress for more than 7 days before the experiments began. In most experiments, it was necessary to measure blood glucose in fasting animals. For these groups, food was removed at the beginning of the light cycle, 6 hours before glucose levels were measured. Diabetes mellitus was induced by intraperitoneal injection of streptozotocin (Sigma Chemical Co., St. Louis, Mo.) (25 to 50 mg/kg) to animals (100 to 150 grams) that had been fasted 4 hours to enhance the effectiveness of STZ treatment.
# The STZ solution was prepared fresh by dissolving it in 0.1 M citrate buffer (pH 5.5) and terminally sterile filtered. Control Lewis age and weight matched rats received a 0.5 ml/kg citrate vehicle alone via intraperitoneal injection. Sixty minutes prior to intraperitoneal glucose tolerance testing (IPGTT), anesthesia of male Lewis rats was induced with isoflurane (3-4% in oxygen) and maintained with 1-2% isoflurane in oxygen. Anaesthetized rats were administered TBZ and other indicated compounds at the indicated dose by intravenous (i.v.) injection using the penile vein. TBZ was dissolved in neat sterile dimethylsulfoxide (DMSO) and diluted (always more than 10 fold) in sterile saline. Rats received injections of vehicle alone (10% DMSO in saline) or reserpine (in saline). Animals recovered fully before receiving IPGTT.
# (§2) Blood samples were collected from a superficial blood vessel in the tails of the rats following 6 hours of fasting between 12:00 noon and 2:00 p.m. The fasting blood glucose (BG) levels of the rats were measured using an Accu-Check blood glucose monitoring system (Roche Diagnostics, Sommerville, N.J.). Intraperitoneal glucose tolerance tests (IPGTT) were performed in 6 hour fasting un-anaesthetized animals. Briefly, after baseline BG measurements, animals received an intraperitoneal (i.p.) injection of 1 gram glucose/kilogram body weight. To minimize stress during the procedure, rats were handled by the same operator during acclimatization and later during weighing and IPGTT. Blood samples (approximately 30 μl) were collected at baseline and then again 15, 30, 60, 90, and 120 minutes following i.p. glucose administration. BG concentrations were measured immediately on these samples and the remainder processed.
# (§3) Plasma was immediately separated by centrifugation at 3000×g for 15 minutes and then stored at −20° C. until analysis. Insulin and glucagon concentration measurements in rat plasma were performed by ELISA as per the manufacturer's instructions using kits from Linco Research Inc. (St. Charles, Mo.) and Alpco Diagnostics (Salem, N.H.), respectively. To validate the test, saline injections were performed by the same method. […] The area under the IPGTT glucose concentration×time curve (AUCIPGTT) was calculated by the trapezoidal rule. The area under the insulin or glucagon concentration×time curve (AUC INS or AUC GCG) was calculated in a similar manner.
# Anaesthetized rats were administered TBZ, THB, butamol, reserpine, emetine, or HG-6 at a dose of approximately 2-3 mg/kg body weight by intravenous (i.v.) injection using the penile vein. TBZ, THB, butamol, reserpine, emetine, and HG-6 were each separately dissolved in neat sterile dimethylsulfoxide (DMSO) and diluted (always more than 10 fold) in sterile saline. Rats received injections of vehicle alone (10% DMSO in saline) or reserpine (in saline). Animals recovered fully before receiving IPGTT. […]
# [3] = system: diabetic Lewis rats; test: IPGTT in streptozotocin-induced diabetic Lewis rats
# Protocol: as §1, with “In most experiments, it was necessary to measure blood glucose in fasting animals.” left out, “Diabetes mellitus was induced by intraperitoneal injection of streptozotocin (Sigma Chemical Co., St. Louis, Mo.) (25 to 50 mg/kg) to animals (100 to 150 grams) that had been fasted 4 hours to enhance the effectiveness of STZ treatment.” left out
# Blood samples were collected from a superficial blood vessel in the tails of the rats following 6 hours of fasting between 12:00 noon and 2:00 p.m. The fasting blood glucose (BG) levels of the rats were measured using an Accu-Check blood glucose monitoring system (Roche Diagnostics, Sommerville, N.J.). […] BG concentrations were measured immediately on these samples and the remainder processed.
# Plasma was immediately separated by centrifugation at 3000×g for 15 minutes and then stored at −20° C. until analysis. […] The area under the IPGTT glucose concentration×time curve (AUCIPGTT) was calculated by the trapezoidal rule. […]
# [4] = system: Lewis rats; test: Plasma insulin and glucagon during IPGTT (ELISA)
# Protocol: as §2, §3
# [5] = system: dopamine content of brain and pancreas tissue; test: Dopamine measurements in brain and pancreas extracts (ELISA)
# Protocol: Anaesthetized rats received an intravenous injection of TBZ and were sacrificed one hour later. Euthanasia was performed by exsanguination of the anesthetized animal. Brain and pancreas were harvested as quickly as possible and frozen at −80° C. until use. Frozen tissue was pulverized in a liquid nitrogen cooled mortar and extracted in 0.01 N HCl. The tissue extract was centrifuged at 10,000×g at 4° C. to remove debris and the total protein was estimated by reading the absorbance at 280 nm. The concentration of dopamine in the extract was estimated using an ELISA kit from Rocky Mountain Diagnostics (Colorado Springs, Colo.) per the manufacturer's instructions and normalized to the extract protein concentration.
# [6] = single dose 2-3 mg/kg body weight i.v., FIG. 12
# [7] = 2 mg/kg body weight i.v., Lewis rats 9-11 weeks old, vs vehicle (DMSO)
compound,measurement,setting,value
COc1ccc([C@@H]2C[C@H](O)[C@@H](CC(C)C)CN2)cc1OC [HG-1],hypoglycemic activity in IPGTT compared with TBZ / HG-3,[1],less potent than TBZ
COc1ccc(C2CC(O)C(CC(C)C)CN2)cc1OC (stereo not shown) [HG-2],hypoglycemic activity in IPGTT compared with TBZ / HG-3,[1],less potent than TBZ
COc1ccc(C2CC(=O)CC(=O)N2)cc1OC (stereo not shown) [HG-5],hypoglycemic activity in IPGTT compared with TBZ / HG-3,[1],loss of the improved activity
"COc1cc2c(cc1OC)C1CC(N)C(CC(C)C)CN1CC2 (stereo not shown) [HG-6, 3-isobutyl-9,10-dimethoxy-2,3,4,6,7,11b-hexahydro-1H-pyrido[2,1-a]isoquinolin-2-amine]",blood glucose excursion during IPGTT,[2]; [6],consistently reduced the blood glucose excursion
same,area under the curve from glucose tolerance tests,[2]; [6],consistently suppressed the area under the curve; also recorded: depress the area under the curve
COc1ccc(C2CC(OCC(C)C)=CC(=O)O2)cc1OC (stereo not shown) [HG-7],hypoglycemic activity in IPGTT compared with TBZ / HG-3,[1],loss of the improved activity
COc1cc2c(cc1OC)C1CC(OCC(C)C)=CC(=O)N1CC2 (stereo not shown) [HG-8],hypoglycemic activity in IPGTT compared with TBZ / HG-3,[1],active but less potent
COC1=CC(=O)OC(c2ccc(OC)c(OC)c2)C1 (stereo not shown) [HG-9],hypoglycemic activity in IPGTT compared with TBZ / HG-3,[1],loss of the improved activity
COC1=CC(=O)N2CCc3cc(OC)c(OC)cc3C2C1 (stereo not shown) [HG-10],hypoglycemic activity in IPGTT compared with TBZ / HG-3,[1],active but less potent
"COc1cc2c(cc1OC)[C@@H]1CC(=O)[C@@H](CC(C)C)CN1CC2 [TBZ, tetrabenazine]","blood glucose excursion / area under the curve in IPGTT, diabetic rats","[3]; STZ-diabetic Lewis rats 5-8 weeks, TBZ 1.6 μg/gm i.v.",smaller area under the curve; also recorded: reduces the blood glucose excursion during IPGTT in diabetic Lewis rats
same,"blood glucose levels before i.p. glucose challenge, diabetic rats",[3]; around sixty minutes following i.v. injection of TBZ,returned to control or near normal levels
same,glucose-stimulated insulin and glucagon secretion in vivo,"[4]; TBZ 1.6 μg/gm, Lewis rats 9-11 week old, during IPGTT",alters glucose-stimulated insulin and glucagon secretion in vivo
same,plasma insulin levels relative to vehicle treated controls,[4]; following TBZ and glucose challenge,greater
same,plasma glucagon levels relative to controls,[4]; following i.v. TBZ administration and glucose challenge,generally lower
same,AUC INS with TBZ treatment relative to AUC INS of control animals,[4]; four out of five experiments,greater than two fold
same,baseline plasma concentrations of glucagon,[4]; prior to glucose challenge,"sometimes lower than controls, although these differences did not reach statistical significance"
same,"AUC GCG, less than AUC GCG of control animals",[4]; three of five experiments,75%-85%
same,decrease of the AUC IPGTT (area under the blood glucose concentration-time curve),"[1]; 30 min before i.p. glucose, relative to vehicle, n=5",26%
same,dopamine content of brain and pancreas tissue,"[5]; TBZ 1.6 μg/gm body weight i.v., one hour later, normalized to total protein",reduces the dopamine content of brain and pancreas tissue
same,dopamine content of pancreas and brain,[5]; one hour after injection of 10 μg/gm body weight of tetrabenazine,significantly depleted the dopamine content of pancreas and brain
same,AUC Blood Glucose IPGTT,[2],smaller area under the curve; also recorded: lower than that for vehicle and butamol treated animals
same,blood glucose excursion during IPGTT,[2]; [7],reduced the blood glucose excursion
same,blood glucose excursion during IPGTT,"[2]; 2 mg/kg body weight i.v., Lewis rats 9-11 weeks old, vs vehicle (DMSO), listed as Tetrabenazine",reduced the blood glucose excursion
same,blood glucose excursion during IPGTT,"[2]; Lewis rats 9-11 week old, TBZ 1.6 μg/gm body weight i.v., vs vehicle",reduces the blood glucose excursion
same,blood glucose excursion during IPGTT,"[2]; Lewis rats 9-11 week old, TBZ 1.6 μg/gm body weight i.v., vs vehicle, listed as tetrabenazine",significant change in the size and shape of the glucose disposition curve
same,reduction of the glucose excursion (areas under the curve during IPGTT),[2]; TBZ 1.6 μg/gbw,40-50%
same,AUC IPGTT of controls compared with TBZ treated animals,"[2]; TBZ 1.6 μg/gm, series of experiments n=4, p<0.05",significantly higher
same,baseline fasting glucose concentration,"[2]; after TBZ administration, before glucose challenge, data not shown",no reproducible differences were observed
same,blood glucose levels around sixty minutes following glucose challenge,[2],returned to control or near normal levels
same,blood glucose excursion during IPGTT,[2]; [6],consistently reduced the blood glucose excursion
same,area under the curve from glucose tolerance tests,[2]; [6],consistently suppressed the area under the curve; also recorded: depress the area under the curve
same,dose dependence of AUC IPGTT,"[2]; varying doses of TBZ, normalized to each animal's untreated baseline IPGTT",complex dose response effect; also recorded: reduces the blood glucose excursion in a dose dependent manner
"COc1ccc2c(c1OC)CN1CCc3cc4c(cc3C1C2)OCO4 (stereo not shown) [THB, tetrahydroberberine]",AUC Blood Glucose IPGTT,[2],smaller area under the curve; also recorded: lower than that for vehicle and butamol treated animals
same,blood glucose excursion during IPGTT,[2]; [7],reduce the blood glucose excursion
same,blood glucose levels around sixty minutes following glucose challenge,[2],returned to control or near normal levels
CC(C)(C)NCC(O)c1ccc(O)c(CO)c1 (stereo not shown) [butamol],AUC Blood Glucose IPGTT,[2],smaller area under the curve
same,blood glucose excursion during IPGTT,[2]; [7],did not reduce the blood glucose excursion; also recorded: does not reduce the blood glucose excursion
same,blood glucose levels around sixty minutes following glucose challenge,[2],returned to control or near normal levels
COc1ccc(-c2cc(OCC(C)C)cc(=O)[nH]2)cc1OC [compound 17],hypoglycemic activity in IPGTT compared with TBZ / HG-3,[1],loss of the improved activity
CC[C@H]1CN2CCc3cc(OC)c(OC)cc3[C@@H]2C[C@@H]1C[C@H]1NCCc2cc(OC)c(OC)cc21 [emetine],AUC Blood Glucose IPGTT,[2],smaller area under the curve; also recorded: lower than that for vehicle and butamol treated animals
same,blood glucose excursion during IPGTT,[2]; [7],reduce the blood glucose excursion
same,blood glucose levels around sixty minutes following glucose challenge,[2],returned to control or near normal levels
same,blood glucose excursion during IPGTT,[2]; [6],consistently reduced the blood glucose excursion
same,area under the curve from glucose tolerance tests,[2]; [6],consistently suppressed the area under the curve
same,area under the curve from glucose tolerance tests,"[2]; single dose 2-3 mg/kg body weight i.v., FIG. 12, listed as emitine",depress the area under the curve
COC(=O)[C@H]1[C@H]2C[C@@H]3c4[nH]c5cc(OC)ccc5c4CCN3C[C@H]2C[C@@H](OC(=O)c2cc(OC)c(OC)c(OC)c2)[C@@H]1OC [reserpine],AUC Blood Glucose IPGTT,[2],smaller area under the curve
same,blood glucose excursion during IPGTT,[2]; [7],reduce the blood glucose excursion
same,blood glucose levels around sixty minutes following glucose challenge,[2],returned to control or near normal levels
same,blood glucose and AUC IPGTT relative to untreated controls,"[2]; reserpine single concentration 25 μg/gbm, data not shown",persistent hyperglycemia and larger AUC IPGTT

# Source: patent US9260391B2, “Hypoglycemic dihydropyridones” (The Trustees of Columbia University in the City of New York, priority 2008, dated 2016)
